Earlier results as cited in US20230158080A1 ([…], LLC, priority 2021, published 2023).

How the values were obtained:
[1] = molecular target: androgen receptor (Homo sapiens, UniProt P10275); conditions: stimulation of EPCs
[2] = tested on: EPC; conditions: different doses of R1881
[3] = tested on: CD34+/F1k1+ and CD34+/VE-cadherin+ cells; conditions: castrated rats after testosterone supplementation

androgen receptor, sequence (P10275 whole entry): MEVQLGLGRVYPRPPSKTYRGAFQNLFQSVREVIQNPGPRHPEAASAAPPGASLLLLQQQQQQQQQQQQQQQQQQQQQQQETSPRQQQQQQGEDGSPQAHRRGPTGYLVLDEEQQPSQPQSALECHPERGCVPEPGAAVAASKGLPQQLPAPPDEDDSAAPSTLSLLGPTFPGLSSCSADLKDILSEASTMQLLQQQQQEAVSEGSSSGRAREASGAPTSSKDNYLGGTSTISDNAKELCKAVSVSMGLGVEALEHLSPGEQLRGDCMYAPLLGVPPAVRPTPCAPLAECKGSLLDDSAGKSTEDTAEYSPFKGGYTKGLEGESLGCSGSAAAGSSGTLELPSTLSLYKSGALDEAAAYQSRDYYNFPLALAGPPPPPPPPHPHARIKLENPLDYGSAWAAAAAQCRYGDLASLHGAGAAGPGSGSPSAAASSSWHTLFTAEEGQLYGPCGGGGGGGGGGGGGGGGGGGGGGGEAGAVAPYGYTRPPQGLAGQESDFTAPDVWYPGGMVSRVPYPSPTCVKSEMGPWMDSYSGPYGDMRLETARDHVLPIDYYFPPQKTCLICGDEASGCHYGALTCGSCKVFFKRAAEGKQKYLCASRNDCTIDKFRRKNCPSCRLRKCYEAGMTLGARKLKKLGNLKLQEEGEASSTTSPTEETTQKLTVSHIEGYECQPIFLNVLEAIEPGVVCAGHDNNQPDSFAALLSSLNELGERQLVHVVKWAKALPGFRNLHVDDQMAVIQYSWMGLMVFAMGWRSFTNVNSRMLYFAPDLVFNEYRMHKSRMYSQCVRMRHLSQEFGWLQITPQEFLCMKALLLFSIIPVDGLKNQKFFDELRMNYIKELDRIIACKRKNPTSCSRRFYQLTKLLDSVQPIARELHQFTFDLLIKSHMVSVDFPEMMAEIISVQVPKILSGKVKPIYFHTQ

| Structure (SMILES) | androgen receptor translocation in the nucleus [1] | EPC proliferation, migration and colony formation [2] | percentage of EPC marker-positive cells in corpus cavernosum [3] |
| --- | --- | --- | --- |
| C[C@]1(O)CC[C@H]2[C@@H]3CCC4=CC(=O)CCC4=C3C=C[C@@]21C [R1881, methyltrienolone] | caused androgen receptor translocation in the nucleus | dose-dependent increase |  |
| C[C@]12CC[C@H]3[C@@H](CCC4=CC(=O)CC[C@@]43C)[C@@H]1CC[C@@H]2O [testosterone] |  |  | restored |
